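Five concentrations, 48 hours, 96-well plates. GI50 marks 50% less growth. TGI: total growth inhibition.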
How the values were obtained:
Assay in all cases: NCI-60 cell line screen, 48 h
[1] = system: A498 renal
[2] = system: LOX IMVI melanoma
[3] = system: NCI-H460 lung
[4] = system: OVCAR-8 ovarian
[5] = system: SF-539 CNS
[6] = system: U251 CNS
[7] = system: UACC-62 melanoma
[8] = system: UO-31 renal
[9] = system: MDA-MB-435
[10] = system: HS 578T breast

SMILES | TGI [1] [µM] | TGI [2] [µM] | TGI [3] [µM] | TGI [4] [µM] | TGI [5] [µM] | TGI [6] [µM] | TGI [7] [µM] | TGI [8] [µM] | GI50 [9] [µM] | TGI [9] [µM] | GI50 [5] [µM] | GI50 [7] [µM] | GI50 [8] [µM] | GI50 [1] [µM] | GI50 [10] [µM] | TGI [10] [µM] | GI50 [2] [µM] | GI50 [3] [µM] | GI50 [4] [µM] | GI50 [6] [µM]
CCOC(=N)CC(=O)Nc1cccc(Cl)c1 | > 100 | > 100 | > 100 | > 100 | > 100 | > 100 | > 100 | > 100 | – | – | – | – | – | – | – | – | – | – | – | –
CCCCc1n(Cc2ccc3ccccc3c2)cc[n+]1Cc1ccc2ccccc2c1 | – | – | – | – | 2.74 | – | 2.08 | 2.96 | 1.02 | 2.26 | 1.4 | 0.705 | 1.45 | – | – | – | – | – | – | –
COc1ccc(-c2cc(-c3cc(Cl)cc(Br)c3O)[nH]c(=O)n2)cc1 | 31.4 | 33.2 | 34.6 | 37.2 | 28.8 | 31.3 | 29.4 | 34.7 | – | – | – | – | – | – | – | – | – | – | – | –
Cc1ccc(C(SCC(N)C(=O)O)(c2ccccc2)c2ccccc2)cc1 (stereo not given) | > 64.7 | 21.6 | 14.8 | > 100 | 1.08 | > 40.1 | > 59.4 | > 100 | – | – | 0.033 | 0.0561 | 13.8 | 1.02 | 0.0371 | 0.913 | 0.247 | 0.0718 | 0.139 | 0.042
Cc1ccc(NC(=S)SCCC(=O)O)cc1 | > 100 | > 100 | > 100 | > 100 | > 100 | > 100 | – | > 100 | – | – | – | – | – | – | – | – | – | – | – | –
COc1cc2c(cc1OC)NC(=O)NC(Cc1ccc3c(c1)OCO3)CC2 (stereo not given) | – | > 100 | > 100 | > 100 | – | – | > 100 | > 100 | – | – | – | – | – | – | – | – | – | – | – | –
CCN(CC)C(=O)N1CCN(C=S)CC1 | > 100 | > 100 | > 100 | > 100 | > 100 | > 100 | > 100 | > 100 | – | – | – | – | – | – | – | – | – | – | – | –
CSc1nc(NC2OC(COC(C)=O)C(OC(C)=O)C(OC(C)=O)C2OC(C)=O)c(-c2csc(N)n2)c(=O)n1C (stereo not given) | > 100 | > 100 | > 100 | 86.9 | > 100 | > 100 | 89.4 | > 100 | – | – | – | – | – | – | – | – | – | – | – | –
Clc1ccc2nc(-c3ccccc3)nc(Cl)c2c1 | > 100 | – | > 100 | > 100 | > 100 | > 100 | > 100 | > 100 | – | – | – | – | – | – | – | – | – | – | – | –
COc1ccc2c(c1)CC1c3c(ccc(OC)c3O)CC2N1C (stereo not given) | > 100 | 38.9 | 38.8 | > 81.3 | 54.6 | > 59.3 | > 100 | > 100 | – | – | – | – | – | – | – | – | – | – | – | –
CC1=C(Cl)C=CP(=O)(OC(C)C)C1 (stereo not given) | > 100 | – | > 100 | > 100 | > 100 | > 100 | > 100 | > 100 | – | – | – | – | – | – | – | – | – | – | – | –
COC(=O)C1C=NNC1C(=O)OC (stereo not given) | > 100 | > 100 | > 100 | > 100 | > 100 | > 100 | > 100 | > 100 | – | – | – | – | – | – | – | – | – | – | – | –
